# What was measured:
# [1] = Chemical and thermal stability of DSFF hydration forms and hydrate mixes; assay type: physicochemical; conditions: for stability of hydration form (chemical / thermal): hydration forms of DSFF, solid state
# [2] = Water content of freeze-dried DSFF product; assay type: physicochemical; conditions: DSFF subjected to a typical freeze-drying process
Compound,stability of hydration form (chemical / thermal) [1],"stability of product of typical freeze-drying process ([1]; DSFF after typical freeze-drying with secondary drying, water content about 1.2% w/w (below monohydrate stoichiometry))",water content of product of typical freeze-drying process [2]
"O.O.O.O=P([O-])([O-])OC(Cn1cncn1)(Cn1cncn1)c1ccc(F)cc1F.[Na+].[Na+] [trihydrate, DSFF Trihydrate]",chemically and thermally stable,,
"O=P([O-])([O-])OC(Cn1cncn1)(Cn1cncn1)c1ccc(F)cc1F.[Na+].[Na+] [DSFF, disodium salt of fosfluconazole]",,chemically unstable and degrades,about 1.2 % w/w
"O.O.O.O.O.O.O=P([O-])([O-])OC(Cn1cncn1)(Cn1cncn1)c1ccc(F)cc1F.[Na+].[Na+] [hexahydrate, DSFF Hexahydrate]",chemically and thermally stable,,

# From US20040007689A1, “Process for controlling the hydrate mix of a compound” (Pfizer Inc., priority 2002, published 2004)
